What follows are compounds tested against T1, mGlyT-1b (Mus musculus, UniProt P28571) (assay: Glycine uptake inhibition assay (mGlyT-1b)). Conditions: [3H]-glycine uptake in Flp-In CHO cells transfected with mGlyT-1b cDNA.
T1 construct: host or cells: Flp-In CHO
T1 sequence (P28571 1-651 isoform P28571-2): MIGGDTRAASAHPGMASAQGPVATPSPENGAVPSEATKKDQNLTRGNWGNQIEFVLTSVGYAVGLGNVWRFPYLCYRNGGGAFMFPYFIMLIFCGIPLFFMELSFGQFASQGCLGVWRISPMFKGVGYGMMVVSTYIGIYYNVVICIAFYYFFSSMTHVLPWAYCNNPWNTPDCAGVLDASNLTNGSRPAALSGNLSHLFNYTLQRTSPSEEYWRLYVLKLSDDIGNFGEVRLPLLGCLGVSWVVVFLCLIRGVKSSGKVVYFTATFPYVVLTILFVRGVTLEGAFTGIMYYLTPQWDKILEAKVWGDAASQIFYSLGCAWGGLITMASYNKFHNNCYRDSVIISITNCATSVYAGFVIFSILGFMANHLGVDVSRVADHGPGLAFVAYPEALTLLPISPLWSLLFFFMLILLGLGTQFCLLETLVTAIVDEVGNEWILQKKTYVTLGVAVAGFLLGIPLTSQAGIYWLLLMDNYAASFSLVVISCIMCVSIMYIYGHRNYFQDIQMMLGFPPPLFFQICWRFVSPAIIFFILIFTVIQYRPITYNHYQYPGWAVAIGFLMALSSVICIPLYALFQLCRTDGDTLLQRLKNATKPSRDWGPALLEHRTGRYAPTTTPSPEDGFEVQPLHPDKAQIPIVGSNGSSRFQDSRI
Assay type: cell-based
Description: DMEM complete medium: Nutrient mixture F-12 (Gibco Life-technologies), fetal bovine serum (FBS) 5%, (Gibco life technologies), Penicillin/Streptomycinl % (Gibco life technologies), Hygromycin 0.6 mg/ml (Gibco life technologies), Glutamine 1 mM Gibco life technologies)
Uptake buffer (UB): 150 mM NaCl, 10 mM Hepes-Tris, pH 7.4, 1 mM CaCl2, 2.5 mM KCl, 2.5 mM MgSO4, 10 mM (+) D-glucose.
Flp-In™ CHO (Invitrogen Cat no R758-07) cells stably transfected with mGlyTlb cDNA.
Glycine uptake inhibition assay (mGlyT-1b)
On day 1 mammalian cells, (Flp-In™ CHO), transfected with mGlyT-1b cDNA, were plated at the density of 40,000 cells/well in complete F-12 medium, without hygromycin in 96-well culture plates. On day 2, the medium was aspirated and the cells were washed twice with uptake buffer (UB). The cells were then incubated for 20 min at 22° C. with either (i) no potential competitor, (ii) 10 mM non-radioactive glycine, (iii) a concentration of a potential inhibitor. A range of concentrations of the potential inhibitor was used to generate data for calculating the concentration of inhibitor resulting in 50% of the effect (e.g. IC50, the concentration of the competitor inhibiting glycine uptake of 50%). A solution was then immediately added containing [^3H]-glycine 60 nM (11-16 Ci/mmol) and 25 μM non-radioactive glycine. The plates were incubated with gentle shaking and the reaction was stopped by aspiration of the mixture and washing (three times) with ice-cold UB. The cells were lysed with scintillation liquid, shaken 3 hours and the radioactivity in the cells was counted using a scintillation counter.

SMILES | IC50
COc1cc(C(F)(F)F)cc(SC)c1C(=O)NC1(c2ccccc2)CCC2CCCN2C1 (single isomer, unassigned; diastereoisomer 2) [Example 4, 2-Methoxy-6-methylsulfanyl-N-(6-phenyl-octahydro-indolizin-6-yl)-4-trifluoromethyl-benzamide (diastereoisomer 2)] | 13 nM
COc1cc(C(F)(F)F)cc(SC)c1C(=O)NC1(c2ccccc2)CCC2CCCCN2C1 (centres unmarked) [Example 5, 2-Methoxy-6-methylsulfanyl-N-(3-phenyl-octahydro-quinolizin-3-yl)-4-trifluoromethyl-benzamide] | 28 nM
COc1cc(C(F)(F)F)cc(SC)c1C(=O)N[C@]1(c2ccccc2)CCCN2CCCC[C@@H]21 (racemic) [Example 1, 2-Methoxy-6-methylsulfanyl-N-((1S,R; 9aR,S)-1-phenyl-octahydro-quinolizin-1-yl)-4-trifluoromethyl-benzamide] | 80 nM
COc1cc(C(F)(F)F)cc(SC)c1C(=O)NC1(c2ccccc2)CCC2CCCN2C1 (single isomer, unassigned; diastereoisomer 1) [Example 3, 2-Methoxy-6-methylsulfanyl-N-(6-phenyl-octahydro-indolizin-6-yl)-4-trifluoromethyl-benzamide (diastereoisomer 1)] | 17 nM
COc1cc(C(F)(F)F)cc(SC)c1C(=O)N[C@]1(c2ccccc2)CCCN2CCC[C@@H]21 (racemic) [Example 2, 2-Methoxy-6-methylsulfanyl-N-((8S,R; 8aR,S)-8-phenyl-octahydro-indolizin-8-yl)-4-trifluoromethyl-benzamide] | 25 nM
